# Reference: PubChem BioAssay (NCI)
#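 All cell lines were grown in 96-well plates and treated with compound for 48 hours. TGI marks complete inhibition of growth.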
# Experiments:
# Assay in all cases: NCI tumour cell line growth inhibition, 48 h
# SK-MEL-28 melanoma = tested on: SK-MEL-28 melanoma
# DMS 273 small cell lung = tested on: DMS 273 small cell lung
# CCRF-CEM leukemia = tested on: CCRF-CEM leukemia
# U251 CNS = tested on: U251 CNS
# SK-OV-3 ovarian = tested on: SK-OV-3 ovarian
# SF-268 CNS = tested on: SF-268 CNS
# IGROV1 ovarian = tested on: IGROV1 ovarian
# NCI-H460 lung = tested on: NCI-H460 lung
# KM12 colon = tested on: KM12 colon
# XF 498 CNS = tested on: XF 498 CNS
# SF-539 CNS = tested on: SF-539 CNS
# SN12K1 renal = tested on: SN12K1 renal
# RPMI-8226 leukemia = tested on: RPMI-8226 leukemia
# HOP-92 NSCLC = tested on: HOP-92 NSCLC
# HCC-2998 colon = tested on: HCC-2998 colon
# UACC-257 melanoma = tested on: UACC-257 melanoma
# HCT-116 colon = tested on: HCT-116 colon
# A549 NSCLC = tested on: A549 NSCLC
# SNB-19 CNS = tested on: SNB-19 CNS
# A498 renal = tested on: A498 renal
# OVCAR-5 ovarian = tested on: OVCAR-5 ovarian
# HT29 colon = tested on: HT29 colon
# HOP-18 NSCLC = tested on: HOP-18 NSCLC
# SNB-78 CNS = tested on: SNB-78 CNS
# SNB-75 CNS = tested on: SNB-75 CNS
# NCI/ADR-RES ovarian = tested on: NCI/ADR-RES ovarian
# HL-60(TB) leukemia = tested on: HL-60(TB) leukemia
# SK-MEL-5 melanoma = tested on: SK-MEL-5 melanoma
# NCI-H23 lung = tested on: NCI-H23 lung
# P388/ADR leukemia = tested on: P388/ADR leukemia
# SW-620 colon = tested on: SW-620 colon
# RXF 393 renal = tested on: RXF 393 renal
# CAKI-1 renal = tested on: CAKI-1 renal
# SK-MEL-2 melanoma = tested on: SK-MEL-2 melanoma
# MOLT-4 leukemia = tested on: MOLT-4 leukemia
# P388 leukemia = tested on: P388 leukemia
# OVCAR-4 ovarian = tested on: OVCAR-4 ovarian
# UO-31 renal = tested on: UO-31 renal
# SN12C renal = tested on: SN12C renal
# HCT-15 colon = tested on: HCT-15 colon
# COLO 205 colon = tested on: COLO 205 colon
# MALME-3M melanoma = tested on: MALME-3M melanoma
# LOX IMVI melanoma = tested on: LOX IMVI melanoma
# OVCAR-3 ovarian = tested on: OVCAR-3 ovarian
# OVCAR-8 ovarian = tested on: OVCAR-8 ovarian
# NCI-H522 lung = tested on: NCI-H522 lung
# DLD-1 colon = tested on: DLD-1 colon
# SF-295 CNS = tested on: SF-295 CNS
# MCF7 breast = tested on: MCF7 breast
# EKVX NSCLC = tested on: EKVX NSCLC
# HOP-62 NSCLC = tested on: HOP-62 NSCLC
# UACC-62 melanoma = tested on: UACC-62 melanoma
# K-562 leukemia = tested on: K-562 leukemia
# KM20L2 colon = tested on: KM20L2 colon
# M19-MEL melanoma = tested on: M19-MEL melanoma
# NCI-H226 lung = tested on: NCI-H226 lung
# LXFL 529 NSCLC = tested on: LXFL 529 NSCLC
# M14 melanoma = tested on: M14 melanoma
# SR leukemia = tested on: SR leukemia
# 786-0 renal = tested on: 786-0 renal
# DMS 114 small cell lung = tested on: DMS 114 small cell lung
# RXF-631 renal = tested on: RXF-631 renal
# TK-10 renal = tested on: TK-10 renal
# ACHN renal = tested on: ACHN renal
structure (smiles),measurement,setting,value
COc1ccc(Cc2nn(C3OC(COC(C)=O)C(OC(C)=O)C(OC(C)=O)C3OC(C)=O)c(=S)n(-c3ccc(OC)cc3)c2=O)cc1 (stereo not given),TGI,SK-MEL-28 melanoma,> 100 µM
same,TGI,DMS 273 small cell lung,> 100 µM
same,TGI,CCRF-CEM leukemia,> 100 µM
same,TGI,U251 CNS,> 100 µM
same,TGI,SK-OV-3 ovarian,> 100 µM
same,TGI,SF-268 CNS,> 100 µM
same,TGI,IGROV1 ovarian,> 100 µM
same,TGI,NCI-H460 lung,> 100 µM
same,TGI,KM12 colon,> 100 µM
same,TGI,XF 498 CNS,> 100 µM
same,TGI,SF-539 CNS,> 100 µM
same,TGI,SN12K1 renal,> 100 µM
same,TGI,RPMI-8226 leukemia,> 100 µM
same,TGI,HOP-92 NSCLC,> 100 µM
same,TGI,HCC-2998 colon,> 100 µM
same,TGI,UACC-257 melanoma,> 100 µM
same,TGI,HCT-116 colon,> 100 µM
same,TGI,A549 NSCLC,> 100 µM
same,TGI,SNB-19 CNS,> 100 µM
same,TGI,A498 renal,> 100 µM
same,TGI,OVCAR-5 ovarian,> 100 µM
same,TGI,HT29 colon,> 100 µM
same,TGI,HOP-18 NSCLC,> 100 µM
same,TGI,SNB-78 CNS,> 100 µM
same,TGI,SNB-75 CNS,> 92.2 µM
same,TGI,NCI/ADR-RES ovarian,> 100 µM
same,TGI,HL-60(TB) leukemia,> 100 µM
same,TGI,SK-MEL-5 melanoma,> 100 µM
same,TGI,NCI-H23 lung,> 100 µM
same,TGI,P388/ADR leukemia,> 100 µM
same,TGI,SW-620 colon,> 100 µM
same,TGI,RXF 393 renal,> 100 µM
same,TGI,CAKI-1 renal,> 100 µM
same,TGI,SK-MEL-2 melanoma,> 100 µM
same,TGI,MOLT-4 leukemia,> 100 µM
same,TGI,P388 leukemia,> 100 µM
same,TGI,OVCAR-4 ovarian,> 100 µM
same,TGI,UO-31 renal,> 100 µM
same,TGI,SN12C renal,> 100 µM
same,TGI,HCT-15 colon,> 100 µM
same,TGI,COLO 205 colon,> 100 µM
same,TGI,MALME-3M melanoma,> 100 µM
same,TGI,LOX IMVI melanoma,> 100 µM
same,TGI,OVCAR-3 ovarian,> 100 µM
same,TGI,OVCAR-8 ovarian,> 100 µM
same,TGI,NCI-H522 lung,> 100 µM
same,TGI,DLD-1 colon,> 100 µM
same,TGI,SF-295 CNS,> 100 µM
same,TGI,MCF7 breast,> 100 µM
same,TGI,EKVX NSCLC,> 100 µM
same,TGI,HOP-62 NSCLC,> 100 µM
same,TGI,UACC-62 melanoma,> 100 µM
same,TGI,K-562 leukemia,> 100 µM
same,TGI,KM20L2 colon,> 100 µM
same,TGI,M19-MEL melanoma,> 100 µM
same,TGI,NCI-H226 lung,> 100 µM
COc1ccc(/C=C/c2cc(OC)cc(OC)c2)cc1,TGI,SK-MEL-28 melanoma,65.7 µM
same,TGI,DMS 273 small cell lung,15.6 µM
same,TGI,CCRF-CEM leukemia,36.6 µM
same,TGI,U251 CNS,> 59.8 µM
same,TGI,SK-OV-3 ovarian,37.5 µM
same,TGI,SF-268 CNS,> 28.2 µM
same,TGI,IGROV1 ovarian,> 100 µM
same,TGI,LXFL 529 NSCLC,> 100 µM
same,TGI,NCI-H460 lung,> 34.4 µM
same,TGI,KM12 colon,> 69.1 µM
same,TGI,XF 498 CNS,98.9 µM
same,TGI,SF-539 CNS,11 µM
same,TGI,RPMI-8226 leukemia,23.7 µM
same,TGI,HOP-92 NSCLC,> 100 µM
same,TGI,HCC-2998 colon,33.2 µM
same,TGI,UACC-257 melanoma,> 100 µM
same,TGI,HCT-116 colon,> 58 µM
same,TGI,A549 NSCLC,> 100 µM
same,TGI,SNB-19 CNS,> 100 µM
same,TGI,A498 renal,> 61 µM
same,TGI,OVCAR-5 ovarian,> 50.1 µM
same,TGI,HT29 colon,> 36.6 µM
same,TGI,HOP-18 NSCLC,> 100 µM
same,TGI,SNB-78 CNS,8.71 µM
same,TGI,SNB-75 CNS,> 35.6 µM
same,TGI,M14 melanoma,53.1 µM
same,TGI,HL-60(TB) leukemia,8.52 µM
same,TGI,SK-MEL-5 melanoma,> 100 µM
same,TGI,SR leukemia,> 100 µM
same,TGI,786-0 renal,59.6 µM
same,TGI,NCI-H23 lung,> 100 µM
same,TGI,SW-620 colon,> 100 µM
same,TGI,RXF 393 renal,10.7 µM
same,TGI,DMS 114 small cell lung,9.91 µM
same,TGI,CAKI-1 renal,46.8 µM
same,TGI,SK-MEL-2 melanoma,> 57 µM
same,TGI,MOLT-4 leukemia,> 51 µM
same,TGI,RXF-631 renal,> 53.2 µM
same,TGI,TK-10 renal,> 100 µM
same,TGI,ACHN renal,> 100 µM
same,TGI,OVCAR-4 ovarian,> 100 µM
same,TGI,UO-31 renal,> 64.2 µM
same,TGI,SN12C renal,> 45.4 µM
same,TGI,HCT-15 colon,> 100 µM
same,TGI,COLO 205 colon,10.7 µM
same,TGI,MALME-3M melanoma,> 100 µM
same,TGI,LOX IMVI melanoma,> 100 µM
same,TGI,OVCAR-3 ovarian,8.78 µM
same,TGI,OVCAR-8 ovarian,> 100 µM
same,TGI,NCI-H522 lung,11.6 µM
same,TGI,DLD-1 colon,> 100 µM
same,TGI,SF-295 CNS,> 31.3 µM
same,TGI,EKVX NSCLC,> 100 µM
same,TGI,HOP-62 NSCLC,32.6 µM
same,TGI,UACC-62 melanoma,> 100 µM
same,TGI,K-562 leukemia,> 100 µM
same,TGI,KM20L2 colon,11.7 µM
same,TGI,M19-MEL melanoma,> 100 µM
same,TGI,NCI-H226 lung,> 31.1 µM
